Assay [1] deals with T1, H2-Kd (Mus musculus, UniProt P01902). The note with it: result in words; cited from earlier work.
Assay [2] addresses T1, H2-Kd. The assay can be described thus: In vitro pMHC binding assay. Particulars: refolding with 10 μM peptide, 4°C, 72 hours; ELISA; result in words.

T1 sequence (P01902 22-296 limits assumed): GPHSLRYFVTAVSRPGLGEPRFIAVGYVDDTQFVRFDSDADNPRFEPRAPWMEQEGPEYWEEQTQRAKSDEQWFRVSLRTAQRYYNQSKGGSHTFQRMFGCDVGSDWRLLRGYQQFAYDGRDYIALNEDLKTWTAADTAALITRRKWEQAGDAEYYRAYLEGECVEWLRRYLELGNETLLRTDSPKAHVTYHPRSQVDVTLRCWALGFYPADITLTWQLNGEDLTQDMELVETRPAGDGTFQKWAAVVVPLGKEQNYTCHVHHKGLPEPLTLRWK
T1 sequence (P61769 21-119 partner): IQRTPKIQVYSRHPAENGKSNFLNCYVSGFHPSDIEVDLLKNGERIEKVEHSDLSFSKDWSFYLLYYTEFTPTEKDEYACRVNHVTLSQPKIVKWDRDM

In the case of YIRPFETKVK, the “In silico-predicted MHC binding” value at H2-Kd [1] is reported as “poor in silico-predicted MHC binder”. The “In vitro binding affinity to H2-Kd” value at H2-Kd [2] was “significantly high”.
